Patent publication US11505784B2, “Cell culture medium” (BOEHRINGER INGELHEIM INTERNATIONAL GMBH, priority 2015, dated 2022)
Like-named read-outs stand apart in the source and are kept apart here.

Experiments:
[1] = test system: CHO2 (CHO-DG44) cells producing Rituximab; settings: for product titer: feed medium 2 with 0.25 g/l iron citrate
Method: Cell concentrations and cell viabilities were determined by the trypan blue exclusion method using a CEDEX (Type 5.00, version 2.2) automated cell analyzer (Roche Innovatis, Bielefeld, Germany). The concentrations of produced recombinant proteins in the medium, such as IgG antibodies were quantified by a Konelab 60i (Thermo Scientific, Dreieich, Germany) analyzer based on photometrical methods or by the use of a HPLC method. The Konelab 60i instrument was also used for the quantification of metabolites such as glucose, lactic acid (lactate), glutamine, glutamate, and ammonium in the cell culture supernatants. Amino acid concentrations were determined by use of a GC 6890N/FID gas chromatograph (Agilent Technologies GmbH & Co.KG, Waldbronn, Germany). Amino acid analysis was performed by the EZ-faast protocol from Phenomenex (Aschaffenburg, Germany). Osmolarity profiles were analyzed by an osmomat auto device (Gonotec GmbH, Berlin, Germany). This method is based on the cryoscopic freezing point of a particular solution, which is proportional to the amount of dissolved particles. Dissolved carbon dioxide pCO2, dissolved oxygen pO2 and pH were determined on a daily basis with a Rapidlab 248/348 instrument (Siemens Healthcare Diagnostics GmbH, Eschborn, Germany).
The experiment was performed in 250 ml shake flasks with a starting volume of 60 ml.
Shake flasks were incubated at 37° C. in an incubator (10% CO2 atmosphere was provided from day 0 to 3 followed by 5% CO2 for one day and 0% CO2 until the end of the cultivation). Feeding solution was added every day at a feed rate of 30 ml/L/d starting on day two. Glucose was fed on demand to maintain the actual glucose concentration between 2-4 g/l over the cultivation period. Total cells, viable cells, viability, product concentration, glucose concentration, lactic acid concentration, ammonium concentration and osmolarity were measured every second day until the end of cultivation to monitor and control the experimental progress. Experiments were performed in duplicates (N=2).

[2] = test system: CHO2 (CHO-DG44) cells producing Rituximab; test: Fed-batch shake flask comparison of iron carriers in basal medium 6.2a (Example 7); format: cell-based, Chinese hamster
Method: Basal medium 6.2a is a precursor medium that is almost identical to basal medium 6.2 except for additionally comprising some non-essential cofactors and nucleotides and containing no succinic acid, putrescine at only 4.8 mg/l and a total amino acid concentration of 40 mM instead of 44 mM. Further Glutamine was added at a lower amount resulting in a ratio relative to isoleucine of 37.42.
Feed medium 6.2a is a precursor medium that is almost identical to feed medium 6.2 except for additionally comprising some non-essential cofactors and nucleotides and slightly higher sodium bicarbonate and containing putrescine at only 33.02 mg/l and a total amino acid concentration of 511 mM instead of 508 mM. Further alanine was additionally present in the medium with a ratio relative to isoleucine of 0.15.
Experiments were performed in duplicates (N=2).

[3] = test system: CHO2 (CHO-DG44) Rituximab cells; settings: 0.1 g/l (so in the source) in RPMI based basal medium 3.1; feed medium 2 with 0.25 g/l iron citrate; 2 L bioreactor
Method: Cell concentrations and cell viabilities were determined by the trypan blue exclusion method using a CEDEX (Type 5.00, version 2.2) automated cell analyzer (Roche Innovatis, Bielefeld, Germany). The concentrations of produced recombinant proteins in the medium, such as IgG antibodies were quantified by a Konelab 60i (Thermo Scientific, Dreieich, Germany) analyzer based on photometrical methods or by the use of a HPLC method. The Konelab 60i instrument was also used for the quantification of metabolites such as glucose, lactic acid (lactate), glutamine, glutamate, and ammonium in the cell culture supernatants. Amino acid concentrations were determined by use of a GC 6890N/FID gas chromatograph (Agilent Technologies GmbH & Co.KG, Waldbronn, Germany). Amino acid analysis was performed by the EZ-faast protocol from Phenomenex (Aschaffenburg, Germany). Osmolarity profiles were analyzed by an osmomat auto device (Gonotec GmbH, Berlin, Germany). This method is based on the cryoscopic freezing point of a particular solution, which is proportional to the amount of dissolved particles. Dissolved carbon dioxide pCO2, dissolved oxygen pO2 and pH were determined on a daily basis with a Rapidlab 248/348 instrument (Siemens Healthcare Diagnostics GmbH, Eschborn, Germany). […]

Compound: C[N+](C)(C)CCO.O=C([O-])CC(O)(CC(=O)[O-])C(=O)[O-].[Fe+2] [iron choline citrate]
- osmolarity of the culture compared to equimolar iron citrate (in words) ([1]; equimolar application, data not shown): lower osmolarity values

Compound: O=P([O-])([O-])[O-].[Fe+3] [iron phosphate]
- product titer ([2]; iron carrier 0.3 g/L in basal medium 6.2a, feed medium 6.2a without iron choline citrate): 2.29 g/L

Compound: O=P([O-])([O-])OP(=O)([O-])[O-].O=P([O-])([O-])OP(=O)([O-])[O-].O=P([O-])([O-])OP(=O)([O-])[O-].[Fe+3].[Fe+3].[Fe+3].[Fe+3] [iron pyro phosphate]
- product titer ([2]; iron carrier 1.3 g/L in basal medium 6.2a, feed medium 6.2a without iron choline citrate): 2.26 g/L

Compound: iron citrate
- product titer [3]: 0.200 g/L
- product titer ([1]; 0.1 g/L in basal medium 3.1): 0.184 g/L
- product titer ([1]; 0.2 g/L in basal medium 3.1): 0.200 g/L
- titer ([1]; 1.0 g/L in basal medium 3.1): 201 mg/L
- product titer ([1]; 1.0 g/L in basal medium 3.1): 0.201 g/L
- product titer ([2]; parallel experiment: 0.1 g/L in basal medium 6.2a, feed medium 6.2a with 0.25 g/l iron citrate): 2.38 g/L
